Data published in patent publication US20120165304A1, “6,7,8,9-Tetrahydro-5H-1,4,7,10a-tetraaza-cyclohept[f]indene derivatives, pharmaceutical compositions containing these compounds, their use and processes for preparing them” (BOEHRINGER INGELHEIM INTERNATIONAL GMBH, priority 2008, published 2012).

Target: human 5-HT2C receptor (Homo sapiens, UniProt P28335, I156V/I160V/N158S)
Assay: cell-based

human 5-HT2C receptor, sequence (P28335 33-458 I156V/N158S/I160V limits assumed): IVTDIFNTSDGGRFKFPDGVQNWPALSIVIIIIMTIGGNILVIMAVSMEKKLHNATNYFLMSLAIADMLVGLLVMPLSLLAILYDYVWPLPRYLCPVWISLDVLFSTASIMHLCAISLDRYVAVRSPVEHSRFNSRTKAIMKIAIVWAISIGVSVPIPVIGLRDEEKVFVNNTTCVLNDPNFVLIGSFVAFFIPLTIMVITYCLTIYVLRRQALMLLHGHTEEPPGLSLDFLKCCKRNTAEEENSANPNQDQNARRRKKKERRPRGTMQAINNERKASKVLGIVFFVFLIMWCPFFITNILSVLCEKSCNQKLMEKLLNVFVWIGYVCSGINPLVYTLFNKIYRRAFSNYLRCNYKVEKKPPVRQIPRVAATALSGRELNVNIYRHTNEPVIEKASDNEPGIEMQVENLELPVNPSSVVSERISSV

| Structure (SMILES) | EC50 [nM] |
| --- | --- |
| Cc1cnn2c(N3CC(C(=O)N4CCC(Oc5ccccc5)CC4)C3)c3c(nc12)CCNCC3 [Example 31.244] | 62 |
| CS(=O)(=O)N1CCN(C(=O)C2CN(c3c4c(nc5ccnn35)CCNCC4)C2)CC1 [Example 37.45] | 2 |
| O=C(C1CN(c2c3c(nc4ccnn24)CCNCC3)C1)N1CCC(c2ccccc2)(c2ccccc2)CC1 [Example 31.72] | 819 |
| C1=C(c2c3c(nc4ccnn24)CCNCC3)CCNC1 [Example 24, 10-(1,2,3,6-Tetrahydro-pyridin-4-yl)-6,7,8,9-tetrahydro-5H-1,4,7,10a-tetraaza-cyclohepta[f]indene] | 588 |
| CN(CCc1cccc(Cl)c1)C(=O)C1CN(c2c3c(nc4ccnn24)CCNCC3)C1 [Example 31.59] | 147 |
| O=C(C1CN(c2c3c(nc4ccnn24)CCNCC3)C1)N1CCC(Oc2ccccc2Cl)CC1 [Example 31.145] | 94 |
| O=C(C1CN(c2c3c(nc4ccnn24)CCNCC3)C1)N1CCCC(c2ccccc2)CC1 (stereo not shown) [Example 31.152] | 77 |
| O=C(C1CN(c2c3c(nc4ccnn24)CCNCC3)C1)N1CCC2(CC2)C1 [Example 31.14] | 87 |
| NC1CCN(C(=O)C2CN(c3c4c(nc5ccnn35)CCNCC4)C2)CC1 [Example 37.42] | 2 |
| CC1CCCN(C(=O)C2CN(c3c4c(nc5ccnn35)CCNCC4)C2)C1 (stereo not shown) [Example 31.1] | 89 |
| O=C(NC1CCCOC1)C1CN(c2c3c(nc4ccnn24)CCNCC3)C1 (stereo not shown) [Example 37.49] | 44 |
| O=C(C1CN(c2c3c(nc4ccnn24)CCNCC3)C1)N1Cc2ccccc2C1 [Example 31.44] | 113 |
| CC1CN(C(=O)C2CN(c3c4c(nc5ccnn35)CCN(C)CC4)C2)CC(C)N1C (stereo not shown) [Example 36.7] | 106 |
| CCN1CCCC1CNC(=O)C1CN(c2c3c(nc4ccnn24)CCN(C)CC3)C1 (stereo not shown) [Example 36.4] | 252 |
| c1cc2c(c(OC3CN(c4c5c(nc6ccnn46)CCNCC5)C3)c1)CCCC2 [Example 35.25] | 666 |
| CC(=O)NC1CCN(C(=O)C2CN(c3c4c(nc5ccnn35)CCNCC4)C2)CC1 [Example 37.29] | 10 |
| CN1CCc2nc3ccnn3c(N3CC(C(=O)N4CCC(N5CCCC5)CC4)C3)c2CC1 [Example 36.8] | 38 |
| O=C(C1CN(c2c3c(nc4ccnn24)CCNCC3)C1)N1CCc2c1ccc(F)c2F [Example 31.155] | 52 |
| CN1CCc2nc3ccnn3c(N3CC(C(=O)N4CCC5(CCC5)C4)C3)c2CC1 [Example 36.34] | 885 |
| O=C(O)C1CN(c2c3c(nc4ccnn24)CCNCC3)C1 [Example 1.14] | 1340 |
| FC1(F)CN(c2c3c(nc4ccnn24)CCNCC3)C1 [Example 1.4] | 2420 |
| c1ccc(COC2CN(c3c4c(nc5ccnn35)CCNCC4)C2)cc1 [Example 20, 10-(3-Benzyloxy-azetidin-1-yl)-6,7,8,9-tetrahydro-5H-1,4,7,10a-tetraaza-cyclohepta[f]indene] | 350 |
| O=C(NCC1CC1)C1CN(c2c3c(nc4ccnn24)CCNCC3)C1 [Example 37.75] | 137 |
| O=C(C1CN(c2c3c(nc4ccnn24)CCNCC3)C1)N1CCC(O)(c2ccc(C(F)(F)F)cc2)CC1 [Example 31.227] | 92 |
| O=C(C1CN(c2c3c(nc4ccnn24)CCNCC3)C1)N1CCc2c(cccc2C(F)(F)F)C1 [Example 31.102] | 36 |
| COc1cccc(F)c1OCC1CN(c2c3c(nc4ccnn24)CCNCC3)C1 [Example 15.23] | 47 |
| CC1(C(=O)N2CCC(C(F)(F)F)CC2)CN(c2c3c(nc4ccnn24)CCNCC3)C1 [Example 32.2] | 8290 |

| Structure (SMILES) | EC50 [nM] |
| --- | --- |
| CC(C)N1CCN(C(=O)C2CN(c3c4c(nc5ccnn35)CCNCC4)C2)CC1 [Example 37.3] | 3 |
| CO[C@H]1CCN(C(=O)C2CN(c3c4c(nc5ccnn35)CCN(C)CC4)C2)C1 [Example 36.41] | 337 |
| CN1CCc2nc3ccnn3c(N3CC(C(=O)NC4CCOCC4)C3)c2CC1 [Example 36.35] | 114 |
| COC1CN(c2c3c(nc4ccnn24)CCNCC3)C1 [Example 16.1] | 82 |
| c1cc2nc3c(c(C4CCC4)n2n1)CCNCC3 [Example 23, 10-Cyclobutyl-6,7,8,9-tetrahydro-5H-1,4,7,10a-tetraaza-cyclohepta[f]indene] | 114 |
| O=C(C1CN(c2c3c(nc4ccnn24)CCNCC3)C1)N1CCC(N2CCCC2)CC1 [Example 37.5] | 2 |
| c1cc2nc3c(c(N4CC(OC5CCCC5)C4)n2n1)CCNCC3 [Example 20.5] | 358 |
| CN(CC1CCCCC1)C(=O)C1CN(c2c3c(nc4ccnn24)CCNCC3)C1 [Example 31.100] | 158 |
| Cc1cnn2c(N3CC(C(=O)N4CCc5ccc(C(F)(F)F)cc54)C3)c3c(nc12)CCNCC3 [Example 31.246] | 266 |
| O=C(C1CCCC1)N1CCN(C(=O)C2CN(c3c4c(nc5ccnn35)CCNCC4)C2)CC1 [Example 37.87] | 9 |
| COC1(C)CCN(C(=O)C2CN(c3c4c(nc5ccnn35)CCNCC4)C2)CC1 [Example 31.220] | 55 |
| CN1CCc2nc3ccnn3c(N3CC(C(=O)N4CC[C@H]5CNC[C@H]54)C3)c2CC1 [Example 36.40] | 283 |
| O=C(C1CN(c2c3c(nc4ccnn24)CCNCC3)C1)N1CCN(c2ccccc2)CC1 [Example 37.34] | 6 |
| O=C(C1CN(c2c3c(nc4ccnn24)CCNCC3)C1)N1CCN(CC2CC2)CC1 [Example 37.17] | 3 |
| CN(C)CCCNC(=O)C1CN(c2c3c(nc4ccnn24)CCN(C)CC3)C1 [Example 36.53] | 87 |
| CCC1CCN(C(=O)C2CN(c3c4c(nc5ccnn35)CCNCC4)C2)CC1 [Example 31.68] | 46 |
| O=C(NCC1CCC1)C1CN(c2c3c(nc4ccnn24)CCNCC3)C1 [Example 37.50] | 51 |
| c1ccc(Cn2c(C3CN(c4c5c(nc6ccnn46)CCNCC5)C3)nc3ccccc32)cc1 [Example 34.28] | 188 |
| CN(Cc1c(Cl)cccc1Cl)C(=O)C1CN(c2c3c(nc4ccnn24)CCNCC3)C1 [Example 31.160] | 458 |
| CN1C2CCC1CC(NC(=O)C1CN(c3c4c(nc5ccnn35)CCNCC4)C1)C2 (stereo not shown) [Example 37.93] | 12 |
| COCCNC(=O)C1CN(c2c3c(nc4ccnn24)CCNCC3)C1 [Example 37.73] | 88 |
| CN1CCc2nc3ccnn3c(N3CC(C(=O)N4CCN(C(=O)C5CC5)CC4)C3)c2CC1 [Example 36.43] | 264 |
| COc1ccc(OC2CN(c3c4c(nc5ccnn35)CCNCC4)C2)c(Br)c1 [Example 35.30] | 40 |
| COc1ccc(OC2CN(c3c4c(nc5ccnn35)CCNCC4)C2)c(F)c1 [Example 35.34] | 65 |
| FC(F)(F)c1ccc2c(c1)nc(C1CN(c3c4c(nc5ccnn35)CCNCC4)C1)n2Cc1ccccc1 [Example 34.34] | 2090 |
| CC1CCN(C(=O)C2CN(c3c4c(nc5ccnn35)CCNCC4)C2)C1 (stereo not shown) [Example 31.124] | 94 |
| O=C(C1CN(c2c3c(nc4ccnn24)CCNCC3)C1)N1CCC(c2ccccc2F)CC1 [Example 31.113] | 27 |

| Structure (SMILES) | EC50 [nM] |
| --- | --- |
| O=C(C1CN(c2c3c(nc4ccnn24)CCNCC3)C1)N1CCCCC(F)(F)C1 [Example 41, (3,3-Difluoro-perhydro-azepin-1-yl)-[1-(6,7,8,9-tetrahydro-5H-1,4,7,10a-tetraaza-cyclohept[f]inden-10-yl)-azetidin-3-yl]-methanone] | 7 |
| O=C(NCCC(F)(F)F)C1CN(c2c3c(nc4ccnn24)CCNCC3)C1 [Example 37.63] | 84 |
| CC(C)c1ccccc1OC1CCN(C(=O)C2CN(c3c4c(nc5ccnn35)CCNCC4)C2)CC1 [Example 31.219] | 124 |
| O=C(C1CN(c2c3c(nc4ccnn24)CCNCC3)C1)N1CCC(OCc2ccccc2)CC1 [Example 31.199] | 48 |
| Cc1ccccc1N1CCN(C(=O)C2CN(c3c4c(nc5ccnn35)CCNCC4)C2)CC1 [Example 37.37] | 9 |
| O=C(C1CN(c2c3c(nc4ccnn24)CCNCC3)C1)N1CCCC1 [Example 31.64] | 199 |
| O=C(C1CN(c2c3c(nc4ccnn24)CCNCC3)C1)N1CCC(c2ccc(Cl)cc2)CC1 [Example 31.115] | 55 |
| O=C(C1CN(c2c3c(nc4c(Br)cnn24)CCNCC3)C1)N1CCC2(CCOC2)CC1 [Example 31.137] | 71 |
| c1ccc(CN2CCN(c3c4c(nc5ccnn35)CCNCC4)CC2)cc1 [Example 1.1] | 108 |
| O=C(C1CN(c2c3c(nc4ccnn24)CCNCC3)C1)N1CC[C@H](Oc2ccccc2)C1 [Example 31.212] | 34 |
| CN(C)CCCN(C)C(=O)C1CN(c2c3c(nc4ccnn24)CCNCC3)C1 [Example 37.41] | 8 |
| CC(=O)NC1CCN(C(=O)C2CN(c3c4c(nc5ccnn35)CCNCC4)C2)C1 (stereo not shown) [Example 37.27] | 14 |
| COc1ccc(OCC2CN(c3c4c(nc5ccnn35)CCNCC4)C2)c(Cl)c1 [Example 15.16] | 3 |
| O=C(C1CN(c2c3c(nc4ccnn24)CCNCC3)C1)N1CCCC2CCCCC21 (stereo not shown) [Example 31.127] | 1280 |
| O=C(C1CN(c2c3c(nc4ccnn24)CCNCC3)C1)N1CCC2CC2(c2ccccc2)C1 (stereo not shown) [Example 31.233] | 106 |
| C#CCNC(=O)C1CN(c2c3c(nc4ccnn24)CCNCC3)C1 [Example 37.85] | 94 |
| O=C(NC1CCCC(C(F)(F)F)C1)C1CN(c2c3c(nc4ccnn24)CCNCC3)C1 (stereo not shown) [Example 37.59] | 47 |
| c1ccc2c(c1)OCCN2c1c2c(nc3ccnn13)CCNCC2 [Example 1.39] | 2580 |
| Cc1cnn2c(N3CC(C(=O)N4CCC(c5ccccc5F)CC4)C3)c3c(nc12)CCNCC3 [Example 31.243] | 82 |
| CCNC(=O)C1CN(c2c3c(nc4ccnn24)CCNCC3)C1 [Example 37.95] | 742 |
| O=C(C1CN(c2c3c(nc4ccnn24)CCNCC3)C1)N1CCNCC1 [Example 37.44] | 2 |
| Fc1ccccc1OC1CN(c2c3c(nc4ccnn24)CCNCC3)C1 [Example 1.8] | 5 |
| CN1CCc2nc3ccnn3c(N3CC(C(=O)NCC4CCN(C)CC4)C3)c2CC1 [Example 36.3] | 108 |
| c1nn2c(N3CCC3)c3c(nc2c1CCC1CC1)CCNCC3 [Example 6.1] | 365 |
| O=C(C1CN(c2c3c(nc4ccnn24)CCNCC3)C1)N1CCC(c2cccc(F)c2)C1 (stereo not shown) [Example 31.118] | 11 |
